Several values for one entry are separate records, joined by “and”; a condition that tells them apart may be missing. Equal entries are not always repeated.
Tests used:
[1] = GA glucuronidation kinetics in human intestinal microsomes; type: in vitro ADME; conditions: for microsomal CLint: human intestinal microsomes
[2] = GA glucuronidation kinetics in rat liver microsomes; type: in vitro ADME, Sprague-Dawley rats; conditions: for microsomal CLint: rat liver microsomes
[3] = GA glucuronidation kinetics in rat intestinal microsomes; type: in vitro ADME, Sprague-Dawley rats
UGT1A8 = target: T1, UGT1A8 (Homo sapiens, UniProt Q9HAW9); test: GA glucuronidation by recombinant UGT1A8; type: in vitro ADME
T1 sequence (Q9HAW9 26-530): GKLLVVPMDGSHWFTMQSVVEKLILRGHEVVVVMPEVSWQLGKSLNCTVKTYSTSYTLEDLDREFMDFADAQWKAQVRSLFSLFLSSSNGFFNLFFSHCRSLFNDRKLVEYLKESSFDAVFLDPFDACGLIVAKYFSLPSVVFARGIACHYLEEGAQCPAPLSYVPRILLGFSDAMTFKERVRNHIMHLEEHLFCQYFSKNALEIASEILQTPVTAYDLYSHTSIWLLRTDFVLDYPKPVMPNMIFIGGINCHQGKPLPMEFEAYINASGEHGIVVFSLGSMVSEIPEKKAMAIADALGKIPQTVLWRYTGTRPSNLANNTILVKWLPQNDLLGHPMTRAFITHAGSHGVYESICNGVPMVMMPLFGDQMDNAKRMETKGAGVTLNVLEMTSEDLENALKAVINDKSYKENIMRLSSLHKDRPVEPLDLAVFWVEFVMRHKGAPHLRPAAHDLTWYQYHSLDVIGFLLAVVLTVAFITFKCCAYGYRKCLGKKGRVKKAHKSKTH

UGT1A10 = target: T2, UGT1A10 (Homo sapiens, UniProt Q9HAW8); test: GA glucuronidation kinetics by recombinant UGT1A10; type: in vitro ADME
T2 sequence (Q9HAW8 26-530): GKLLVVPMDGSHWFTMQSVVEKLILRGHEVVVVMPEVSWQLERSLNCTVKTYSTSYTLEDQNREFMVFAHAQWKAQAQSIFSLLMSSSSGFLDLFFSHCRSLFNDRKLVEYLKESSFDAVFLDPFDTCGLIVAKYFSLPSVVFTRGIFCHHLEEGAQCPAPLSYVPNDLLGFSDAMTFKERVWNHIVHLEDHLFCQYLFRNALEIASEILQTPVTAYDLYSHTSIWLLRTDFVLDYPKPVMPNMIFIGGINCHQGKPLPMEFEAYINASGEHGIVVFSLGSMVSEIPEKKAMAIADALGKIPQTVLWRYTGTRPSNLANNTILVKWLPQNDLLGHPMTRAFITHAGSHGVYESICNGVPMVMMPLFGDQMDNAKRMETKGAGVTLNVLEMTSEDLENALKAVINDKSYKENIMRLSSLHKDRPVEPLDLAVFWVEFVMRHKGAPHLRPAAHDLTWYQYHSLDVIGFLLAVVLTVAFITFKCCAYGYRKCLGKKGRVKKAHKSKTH

recombinant human UGT2B7 = target: T3, recombinant human UGT2B7 (Homo sapiens, UniProt P16662); test: GA glucuronidation by recombinant UGT2B7; type: in vitro ADME; conditions: UGT2B7, whole range of substrate concentrations
T3 sequence (P16662 24-529): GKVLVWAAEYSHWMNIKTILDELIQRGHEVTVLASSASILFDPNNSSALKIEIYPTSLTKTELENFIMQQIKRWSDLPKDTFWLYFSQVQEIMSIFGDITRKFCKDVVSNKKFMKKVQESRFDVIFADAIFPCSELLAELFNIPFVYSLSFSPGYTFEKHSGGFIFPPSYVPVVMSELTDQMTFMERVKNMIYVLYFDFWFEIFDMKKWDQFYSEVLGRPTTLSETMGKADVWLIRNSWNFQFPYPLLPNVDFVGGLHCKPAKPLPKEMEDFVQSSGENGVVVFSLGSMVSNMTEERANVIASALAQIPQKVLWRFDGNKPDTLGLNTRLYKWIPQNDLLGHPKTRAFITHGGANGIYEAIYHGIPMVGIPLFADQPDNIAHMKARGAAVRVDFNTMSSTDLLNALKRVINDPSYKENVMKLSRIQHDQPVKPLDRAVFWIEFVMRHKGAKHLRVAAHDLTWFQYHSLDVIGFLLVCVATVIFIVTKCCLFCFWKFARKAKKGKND

[4] = rats; cited from earlier work

SMILES: CC1(C)C=Cc2c(ccc3c2OC[C@@H](c2ccc(O)cc2O)C3)O1 [GA, glabridin]
- Clint of HIM relative to HLM ([1]; GA glucuronidation, Table 2): more than 100 fold
- Vmax ([1]; HIM, M2 formation): 16.7 ± 7.4 nmol/min/mg
- microsomal CLint ([1]; both, human, pH 7.4, Clint, HIM, M2 formation): 2010 µL/min/mg
- microsomal CLint ([1]; both, human, pH 7.4, Clint, HIM, M2 formation (text)): 2000 µL/min/mg
- microsomal CLint ([1]; both, human, pH 7.4, Cltotal, HIM): 2010 µL/min/mg
- Km at 20 min ([1]; both, human, intestinal microsomes, pH 7.4): 8.3 ± 3.5 µM
- KSI ([2]; RLM, M2 formation): 7.6 ± 3.0 µM
- Vmax ([2]; RLM, M2 formation): 16 ± 5 nmol/min/mg
- Km at 20 min ([2]; male, Sprague-Dawley, rat, liver microsomes, pH 7.4): 3.9 ± 1.9 µM
- microsomal CLint ([2]; male, Sprague-Dawley, rat, pH 7.4, Clint, RLM, M2 formation): 4100 µL/min/mg
- microsomal CLint ([2]; male, Sprague-Dawley, rat, pH 7.4, Clint, RLM, M2 formation (text)): 4000 µL/min/mg
- microsomal CLint ([2]; male, Sprague-Dawley, rat, pH 7.4, Cltotal, RLM): 4100 µL/min/mg
- KSI ([3]; RIM, M2 formation): 5.3 ± 2.5 µM
- Vmax ([3]; RIM, M2 formation): 19 ± 6 nmol/min/mg
- Km at 20 min ([3]; male, Sprague-Dawley, rat, intestinal microsomes, pH 7.4): 3.8 ± 1.1 µM
- microsomal CLint ([3]; male, Sprague-Dawley, rat, rat intestinal microsomes, pH 7.4, Cltotal, RIM): 5000 µL/min/mg
- catalytic activity of UGT1A8 relative to other isoforms (UGT1A8; 2 µM GA, 0.1 mg/mL recombinant UGTs, 60 min): more than 5 fold
- KSI (UGT1A8; UGT1A8, M2 formation): 1.7 ± 0.4 µM
- microsomal CLint (UGT1A8; human, recombinant UGT1A8, pH 7.4): 172 µL/min/mg
- Clint of UGT1A8 relative to other isoforms (UGT1A8; recombinant UGTs): more than 5 fold
- KSI (UGT1A10; UGT1A10, M2 formation): 36 ± 11 µM
- Vmax (UGT1A10; UGT1A10, M2 formation): 0.50 ± 0.10 nmol/min/mg and 0.5 ± 0.1 nmol/min/mg
- microsomal CLint (UGT1A10; human, recombinant UGT1A10, pH 7.4): 18 µL/min/mg
- GA glucuronidation activity (recombinant human UGT2B7): < 0.04 nmol/min/mg
- oral availability [4]: about 7.5 % of the oral dose
